In patent US20100004301A1, “Benzoxazoles Useful in the Treatment of Inflammation” (priority 2006, published 2010):

Biological target: T1, mPGES-1 (Homo sapiens, UniProt O14684)
T1 construct: made in house; host or cells: E. coli
T1 sequence (O14684 1-152): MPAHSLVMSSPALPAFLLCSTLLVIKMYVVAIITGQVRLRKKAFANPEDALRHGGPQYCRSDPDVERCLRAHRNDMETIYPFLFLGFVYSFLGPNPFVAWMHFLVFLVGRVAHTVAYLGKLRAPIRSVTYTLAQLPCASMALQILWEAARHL
Test: mPGES-1 enzyme assay (conversion of PGH2 to PGE2, HPLC analysis)
Format: biochemical
Details: mPGES-1 expressed in E. coli, membrane fraction; 25 min preincubation, 60 s PGH2 reaction, room temperature
Description: In the assay mPGES-1 catalyzes the reaction where the substrate PGH2 is converted to PGE2. mPGES-1 is expressed in E. coli and the membrane fraction is dissolved in 20 mM NaPi-buffer pH 8.0 and stored at −80° C. In the assay mPGES-1 is dissolved in 0.1M KPi-buffer pH 7.35 with 2.5 mM glutathione. The stop solution consists of H2O/MeCN (7/3), containing FeCl2 (25 mM) and HCl (0.15 M). The assay is performed at room temperature in 96-well plates. Analysis of the amount of PGE2 is performed with reversed phase HPLC (Waters 2795 equipped with a 3.9×150 mm C18 column). The mobile phase consists of H2O/MeCN (7/3), containing TFA (0.056%), and absorbance is measured at 195 nm with a Waters 2487 UV-detector.
The following is added chronologically to each well: • 1. 100 μL mPGES-1 in KPi-buffer with glutathione. Total protein concentration: 0.02 mg/mL. • 2. 1 μL inhibitor in DMSO. Incubation of the plate at room temperature for 25 minutes. • 3. 4 μL of a 0.25 mM PGH2 solution. Incubation of the plate at room temperature for 60 seconds. • 4. 100 μL stop solution. • 180 μL per sample is analyzed with HPLC.

Row | IC50 [nM] | Structure (SMILES)
1 | 600 | CC(C)Oc1ccc(-c2ccc3oc(-c4cc(NS(=O)(=O)c5cc(Cl)ccc5Cl)ccc4Cl)nc3c2)cc1 [Example 4, 2,5-Dichloro-N-{4-chloro-3-[5-(4-isopropoxyphenyl)benzoxazol-2-yl]phenyl}benzenesulfonamide]
2 | 130 | Cc1cc(C)cc(-c2cc(-c3nc4cc(C)ccc4o3)cc(NC(=O)c3ccccc3C(F)(F)F)c2N)c1 [Example 5, N-[2-Amino-3′,5′-dimethyl-5-(5-methylbenzoxazol-2-yl)biphenyl-3-yl]-2-trifluoromethylbenzamide]
3 | 270 | CC(C)(C)c1ccc2oc(-c3cc(COc4cccc(Cl)c4)cc(NC(=O)c4ccccc4C(F)(F)F)c3)nc2c1 [Example 7, N-[3-(5-tert-Butylbenzoxazol-2-yl)-5-(3-chlorophenoxymethyl)phenyl]-2-trifluoromethylbenzamide]
